According to patent US12370182B2, “Bicyclic derivatives as GABAA A5 receptor modulators” (RICHTER GEDEON NYRT., priority 2018, dated 2025):

Each molecule was assayed against human recombinant GABAA α5β3γ2 receptor (Homo sapiens (Human), UniProt P18507+P31644) (assay: Binding assay, [3H]Ro151788 displacement on membranes of HEK cells). Details: 0.5 nM [3H]Ro151788, 60 minutes at 4° C., Cheng-Prusoff; read-out: hGABAA α5 Ki.
Protocol: The GABAA α5β3γ2 protein used for the receptor binding assay was derived from membranes produced from HEK cells (Millipore CYL3073) expressing the human recombinant GABAA α5β3γ2 receptor. Cells were stored and cultured in-house according to the instructions provided by the vendor (Millipor). Cell pellet was homogenized in 10 times modified Krebs Henseleit buffer (membrane preparation buffer): 20 mM Tris, 120 mM NaCl, 100 mM KCl, 25 mM CaCl2) and 25 mM MgCl2 pH=7.4 at 4° C. using Ultra Turrax (Janke&Kunkel) maximal speed for 15 seconds. The homogenate was centrifuged at 40,000 g for 30 minutes at 4° C. Supernatant was discarded and the resulting pellet was washed in membrane preparation buffer. Pellet was resuspended in membrane preparation buffer and aliquots of 1.4 mL ampulles were stored at −70° C. until use.
Receptor binding assays were performed in 96-well format in deep-well plates. For each 96-well plate one ampulle of membrane homogenate was thawed and diluted in binding buffer (50 mM Tris pH=7.4, 100 mM KCl) and 200 μL was dispensed into each well. Radioligand [^3H]Ro151788 (Perkin Elmer: NET757250UC) was prepared in binding buffer and added to each well in 50 μL volume to give final concentration of 0.5 nM. Test compounds in suitable concentration(s) were added in additional 50 μL. The final assay volume was 300 μL. Incubation was carried out for 60 minutes at 4° C. For non-specific binding 10 μM unlabeled diazepam was used. After incubation samples were filtered over UniFilter® GF/B™ using Filtermate Harvester (Perkin Elmer) and washed with 5×1 mL binding buffer. The plate was dried at 40° C. for an hour and 40 μL Microscint (Perkin Elmer) scintillation cocktail was added to each well. The plate was read in Microbeta (Perkin Elmer).
The specific radioligand binding (SB) was defined as the difference between total binding (Tot) and the non-specific binding (NSB). Results are expressed as a percent inhibition of specific binding obtained in the presence of compound of interest.
For IC50 and Ki determination a minimum of six drug concentrations in triplicate were used. […] Ki values (i.e. inhibition constants) were calculated using the Cheng-Prusoff equation Ki=IC50/[1+(L/KD)], where [L] is the radioligand concentration and KD the affinity of the labelled ligand for receptor. KD was determined from the Saturation analyses.

Sequence of human recombinant GABAA α5β3γ2 receptor (P31644 32-462): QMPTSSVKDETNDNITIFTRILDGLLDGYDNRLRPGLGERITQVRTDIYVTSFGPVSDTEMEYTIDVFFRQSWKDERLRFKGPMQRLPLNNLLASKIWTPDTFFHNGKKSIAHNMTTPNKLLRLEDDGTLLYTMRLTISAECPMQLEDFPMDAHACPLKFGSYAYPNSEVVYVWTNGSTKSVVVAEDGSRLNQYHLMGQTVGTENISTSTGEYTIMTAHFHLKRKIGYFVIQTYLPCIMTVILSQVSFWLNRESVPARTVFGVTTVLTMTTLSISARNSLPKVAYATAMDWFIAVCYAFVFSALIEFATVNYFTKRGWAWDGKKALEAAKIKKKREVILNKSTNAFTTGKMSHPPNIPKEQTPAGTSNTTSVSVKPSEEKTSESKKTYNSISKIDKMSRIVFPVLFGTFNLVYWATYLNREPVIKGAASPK
Sequence of human recombinant GABAA α5β3γ2 receptor (P28472 26-473 partner): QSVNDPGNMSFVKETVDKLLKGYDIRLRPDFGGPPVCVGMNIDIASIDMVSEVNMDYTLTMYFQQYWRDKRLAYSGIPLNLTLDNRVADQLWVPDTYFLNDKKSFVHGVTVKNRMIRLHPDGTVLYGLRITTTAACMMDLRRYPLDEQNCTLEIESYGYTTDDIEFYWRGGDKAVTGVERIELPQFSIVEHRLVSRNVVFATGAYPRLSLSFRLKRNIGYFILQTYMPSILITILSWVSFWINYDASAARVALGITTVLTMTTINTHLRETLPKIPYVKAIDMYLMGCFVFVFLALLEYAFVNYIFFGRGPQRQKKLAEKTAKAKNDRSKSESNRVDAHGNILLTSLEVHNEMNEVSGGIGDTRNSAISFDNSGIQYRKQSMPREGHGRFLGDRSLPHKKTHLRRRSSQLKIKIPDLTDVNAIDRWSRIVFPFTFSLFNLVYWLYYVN
Sequence of human recombinant GABAA α5β3γ2 receptor (P18507 40-475): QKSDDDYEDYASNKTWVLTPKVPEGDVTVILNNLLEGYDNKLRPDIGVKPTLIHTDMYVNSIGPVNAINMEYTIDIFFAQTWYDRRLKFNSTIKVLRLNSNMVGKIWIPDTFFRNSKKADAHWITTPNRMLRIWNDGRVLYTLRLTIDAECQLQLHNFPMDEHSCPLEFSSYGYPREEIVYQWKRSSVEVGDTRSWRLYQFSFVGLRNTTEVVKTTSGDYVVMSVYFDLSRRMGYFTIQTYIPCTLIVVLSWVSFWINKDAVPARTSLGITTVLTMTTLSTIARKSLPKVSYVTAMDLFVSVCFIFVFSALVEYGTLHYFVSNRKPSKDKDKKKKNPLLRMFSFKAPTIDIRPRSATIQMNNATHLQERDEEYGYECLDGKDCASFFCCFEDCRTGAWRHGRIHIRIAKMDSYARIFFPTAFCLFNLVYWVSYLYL

| Structure (SMILES) | Ki [nM] |
| --- | --- |
| Cc1onc(-c2ccc(F)cc2)c1COc1ccc2c(n1)CCN(C(=O)C1CCC1)C2 [Example 4, 6-cyclobutanecarbonyl-2-{[3-(4-fluorophenyl)-5-methyl-1,2-oxazol-4-yl]methoxy}-5,6,7,8-tetrahydro-1,6-naphthyridine] | 16 |
| Cc1cc(C(=O)N2CCc3nc(OCc4c(-c5ccc(F)cc5)noc4C)ccc3C2)no1 [Example 10, 2-{[3-(4-fluorophenyl)-5-methyl-1,2-oxazol-4-yl]methoxy}-6-(5-methyl-1,2-oxazole-3-carbonyl)-5,6,7,8-tetrahydro-1,6-naphthyridine] | 21 |
| Cc1nnn(-c2ccc(F)cc2)c1COc1ccc2c(n1)CCN(C(=O)C1CC1)C2 [Example 19, 6-cyclopropanecarbonyl-2-{[1-(4-fluorophenyl)-4-methyl-1H-1,2,3-triazol-5-yl]methoxy}-5,6,7,8-tetrahydro-1,6-naphthyridine] | 49 |
| Cc1nnn(-c2ccc(F)cc2)c1COc1ccc2c(n1)CCN(C(=O)c1ccno1)C2 [Example 20, 2-{[1-(4-fluorophenyl)-4-methyl-1H-1,2,3-triazol-5-yl]methoxy}-6-(1,2-oxazole-5-carbonyl)-5,6,7,8-tetrahydro-1,6-naphthyridine] | 24 |
| Cc1nnn(-c2ccc(F)cc2)c1COc1ccc2c(n1)CCN(C(=O)C1CC(=O)N(C)C1)C2 (stereo not drawn) [Example 21, 4-(2-{[1-(4-fluorophenyl)-4-methyl-1H-1,2,3-triazol-5-yl]methoxy}-5,6,7,8-tetrahydro-1,6-naphthyridine-6-carbonyl)-1-methylpyrrolidin-2-one] | 35 |
| Cc1nnn(-c2ccc(F)cc2)c1COc1ccc2c(n1)CCN(C(=O)C(C)C)C2 [Example 22, 1-(2-{[1-(4-fluorophenyl)-4-methyl-1H-1,2,3-triazol-5-yl]methoxy}-5,6,7,8-tetrahydro-1,6-naphthyridin-6-yl)-2-methylpropan-1-one] | 57 |
| CCC(=O)N1CCc2nc(OCc3c(C)nnn3-c3ccc(F)cc3)ccc2C1 [Example 24, 1-(2-{[1-(4-fluorophenyl)-4-methyl-1H-1,2,3-triazol-5-yl]methoxy}-5,6,7,8-tetrahydro-1,6-naphthyridin-6-yl)propan-1-one] | 46 |
| Cc1nnn(-c2ccc(F)cc2)c1COc1ccc2c(n1)CCN(C(=O)c1ccncc1)C2 [Example 25, 2-{[1-(4-fluorophenyl)-4-methyl-1H-1,2,3-triazol-5-yl]methoxy}-6-(pyridine-4-carbonyl)-5,6,7,8-tetrahydro-1,6-naphthyridine] | 29 |
| Cc1nnn(-c2ccc(F)cc2)c1COc1ccc2c(n1)CCN(C(=O)c1ccccn1)C2 [Example 26, 2-{[1-(4-fluorophenyl)-4-methyl-1H-1,2,3-triazol-5-yl]methoxy}-6-(pyridine-2-carbonyl)-5,6,7,8-tetrahydro-1,6-naphthyridine] | 80 |
| Cc1nnn(-c2ccc(F)cc2)c1COc1ccc2c(n1)CCN(C(=O)c1cccc(Cl)c1)C2 [Example 27, 6-(3-chlorobenzoyl)-2-{[1-(4-fluorophenyl)-4-methyl-1H-1,2,3-triazol-5-yl]methoxy}-5,6,7,8-tetrahydro-1,6-naphthyridine] | 137 |
| Cc1nnn(-c2ccc(F)cc2)c1COc1ccc2c(n1)CCN(C(=O)C1CCCOC1)C2 (stereo not drawn) [Example 30, 2-{[1-(4-fluorophenyl)-4-methyl-1H-1,2,3-triazol-5-yl]methoxy}-6-(oxane-3-carbonyl)-5,6,7,8-tetrahydro-1,6-naphthyridine] | 82 |
| Cc1nnn(-c2ccc(F)cc2)c1COc1ccc2c(n1)CCN(C(=O)C1(C)CCOC1)C2 (stereo not drawn) [Example 31, 2-{[1-(4-fluorophenyl)-4-methyl-1H-1,2,3-triazol-5-yl]methoxy}-6-(3-methyloxolane-3-carbonyl)-5,6,7,8-tetrahydro-1,6-naphthyridine] | 44 |
| Cc1nnn(-c2ccc(Cl)cc2)c1COc1ccc2c(n1)CCN(C(=O)C1CCOCC1)C2 [Example 32, 2-{[1-(4-chlorophenyl)-4-methyl-1H-1,2,3-triazol-5-yl]methoxy}-6-(oxane-4-carbonyl)-5,6,7,8-tetrahydro-1,6-naphthyridine] | 22 |
| CC(=O)N1CCc2ccc(OCc3c(C)nnn3-c3ccc(F)cc3)nc2C1 [Example 34, 1-(2-{[1-(4-fluorophenyl)-4-methyl-1H-1,2,3-triazol-5-yl]methoxy}-5,6,7,8-tetrahydro-1,7-naphthyridin-7-yl)ethan-1-one] | 112 |
| COC1CCC(C(=O)N2CCc3nc(OCc4c(C)nnn4-c4ccc(F)cc4)ccc3C2)CC1 (stereo not drawn) [Example 35, 2-{[1-(4-fluorophenyl)-4-methyl-1H-1,2,3-triazol-5-yl]methoxy}-6-(4-methoxycyclohexanecarbonyl)-5,6,7,8-tetrahydro-1,6-naphthyridine] | 71 |
| Cc1nnn(-c2ccc(F)cc2)c1COc1ccc2c(n1)CCN(C(=O)c1ccc(C(F)(F)F)nc1)C2 [Example 37, 2-{[1-(4-fluorophenyl)-4-methyl-1H-1,2,3-triazol-5-yl]methoxy}-6-[6-(trifluoromethyl)pyridine-3-carbonyl]-5,6,7,8-tetrahydro-1,6-naphthyridine] | 69 |
| Cc1nnn(-c2ccc(Cl)cc2)c1COc1ccc2c(n1)CCN(C(=O)[C@H]1CCOC1)C2 [Example 38, 2-{[1-(4-chlorophenyl)-4-methyl-1H-1,2,3-triazol-5-yl]methoxy}-6-[(3S)-oxolane-3-carbonyl]-5,6,7,8-tetrahydro-1,6-naphthyridine] | 18 |
| Cc1nnn(-c2ccc(F)cc2)c1COc1ccc2c(n1)CCN(C(=O)c1cccnc1)C2 [Example 39, 2-{[1-(4-fluorophenyl)-4-methyl-1H-1,2,3-triazol-5-yl]methoxy}-6-(pyridine-3-carbonyl)-5,6,7,8-tetrahydro-1,6-naphthyridine] | 24 |
| Cc1nnn(-c2ccc(F)cc2)c1COc1ccc2c(n1)CCN(C(=O)[C@@H]1CCC(=O)N1C)C2 [Example 40, (5S)-5-(2-{[1-(4-fluorophenyl)-4-methyl-1H-1,2,3-triazol-5-yl]methoxy}-5,6,7,8-tetrahydro-1,6-naphthyridine-6-carbonyl)-1-methylpyrrolidin-2-one] | 56 |

Now those with a lower Ki, led by results:

| Ki [nM] | Structure (SMILES) |
| --- | --- |
| 2.8 | CC(=O)N1CCc2nc(OCc3c(-c4ccc(F)cc4)noc3C)ccc2C1 [Example 1, 1-[2-{[3-(4-fluorophenyl)-5-methyl-1,2-oxazol-4-yl]methoxy}-7,8-dihydro-1,6-naphthyridin-6(5H)-yl]ethanone] |
| 5 | Cc1onc(-c2ccc(F)cc2)c1COc1ccc2c(n1)CCN(C(=O)c1ccno1)C2 [Example 3, 2-{[3-(4-fluorophenyl)-5-methyl-1,2-oxazol-4-yl]methoxy}-6-(1,2-oxazole-5-carbonyl)-5,6,7,8-tetrahydro-1,6-naphthyridine] |
| 7.8 | Cc1onc(-c2ccc(F)cc2)c1COc1ccc2c(n1)CCN(C(=O)C1CC1)C2 [Example 5, 6-cyclopropanecarbonyl-2-{[3-(4-fluorophenyl)-5-methyl-1,2-oxazol-4-yl]methoxy}-5,6,7,8-tetrahydro-1,6-naphthyridine] |
| 6.8 | Cc1onc(-c2ccc(F)cc2)c1COc1ccc2c(n1)CCN(C(=O)C1CCCO1)C2 (stereo not drawn) [Example 7, 2-{[3-(4-fluorophenyl)-5-methyl-1,2-oxazol-4-yl]methoxy}-6-(oxolane-2-carbonyl)-5,6,7,8-tetrahydro-1,6-naphthyridine] |
| 11 | Cc1onc(-c2ccc(F)cc2)c1COc1ccc2c(n1)CCN(C(=O)c1ccn(C)c1)C2 [Example 11, 2-{[3-(4-fluorophenyl)-5-methyl-1,2-oxazol-4-yl]methoxy}-6-(1-methyl-1H-pyrrole-3-carbonyl)-5,6,7,8-tetrahydro-1,6-naphthyridine] |
| 14 | Cc1onc(-c2ccc(F)cc2)c1COc1ccc2c(n1)CCN(C(=O)C(F)(F)F)C2 [Example 12, 2,2,2-trifluoro-1-(2-{[3-(4-fluorophenyl)-5-methyl-1,2-oxazol-4-yl]methoxy}-5,6,7,8-tetrahydro-1,6-naphthyridin-6-yl)ethan-1-one] |
| 14 | Cc1nnn(-c2ccc(Cl)cc2)c1COc1ccc2c(n1)CCN(C(=O)c1ccncc1)C2 [Example 33, 2-{[1-(4-chlorophenyl)-4-methyl-1H-1,2,3-triazol-5-yl]methoxy}-6-(pyridine-4-carbonyl)-5,6,7,8-tetrahydro-1,6-naphthyridine] |
| 9.8 | CC(=O)N1CCc2nc(OCc3c(C)nnn3-c3ccc(Cl)cc3)ccc2C1 [Example 36, 1-(2-{[1-(4-chlorophenyl)-4-methyl-1H-1,2,3-triazol-5-yl]methoxy}-5,6,7,8-tetrahydro-1,6-naphthyridin-6-yl)ethan-1-one] |
